Experimental findings from US20060247320A1, “Compounds for inhibiting KSP kinesin activity” (priority 2005, published 2006) are described below.

The target in one assay is T1, KSP motor domain (Homo sapiens, UniProt P52732).
T1 sequence (P52732 18-359 limits assumed): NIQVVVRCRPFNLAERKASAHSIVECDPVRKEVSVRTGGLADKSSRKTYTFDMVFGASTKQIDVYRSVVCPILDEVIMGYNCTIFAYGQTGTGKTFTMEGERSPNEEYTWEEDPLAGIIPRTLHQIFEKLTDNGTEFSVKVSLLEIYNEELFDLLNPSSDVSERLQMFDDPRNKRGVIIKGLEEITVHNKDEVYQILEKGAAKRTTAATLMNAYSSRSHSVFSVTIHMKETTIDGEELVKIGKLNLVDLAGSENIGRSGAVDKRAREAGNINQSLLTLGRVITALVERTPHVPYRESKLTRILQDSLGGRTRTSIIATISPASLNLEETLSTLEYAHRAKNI
The assay is described as follows: biochemical. The following applies: KSP inhibitory activity, end-point assay; class symbols (Table 1).
Consider `CC(C)(C)C1CCc2nc3sc(C(=N)N)cc3cc2C1` (stereo not shown) [Example 69, 6-tert-butyl-5,6,7,8-tetrahydrothieno[2,3-b]quinoline-2-carboxamidine], for which the “IC50 (nM)” value is “B/C”.

The assay is the same for the next values; noted with them: KSP inhibitory activity, end-point assay; class symbols (Table 1); read-out: IC50.
The IC50 is the concentration needed to halve the response being measured. As for `CC(C)[C@@H](C#N)NC(=O)c1cc2cc3c(nc2s1)CCC(C(C)(C)C)C3` (stereo partly drawn) [Example 162, 6-tert-Butyl-5,6,7,8-tetrahydrothieno[2,3-b]quinoline-2-carboxylic acid [(1S)-1-cyano-2-methylpropyl]amide], the concentration for half-maximal inhibition (IC50) is > 10000 nM.
Take `CC(C)(C)C1CCc2nc3sc(N)nc3cc2C1` (stereo not shown) [Example 133, 7-tert-Butyl-5,6,7,8-tetrahydrothiazolo[5,4-b]quinolin-2-ylamine]: the concentration for half-maximal inhibition (IC50) was > 10000 nM.
For `Cc1ncnc(C)c1C(=O)Nc1ccc([C@@H](CN)NC(=O)c2cc3cc4c(nc3s2)CC[C@@H](C(C)(C)C)C4)cc1` [Example 272], the half-maximal inhibitory concentration (IC50) was < 100 nM.
For the compound `CC(C)(C)[C@@H]1CCc2nc3sc(C(=O)N[C@H](CN)c4cccc(NC(=O)c5ccn(-c6ccccc6)n5)c4)cc3cc2C1` [Example 241], the IC50 is < 100 nM.
Still for that read-out and setting: the figure for `CC(C)(C)C1CCc2nc3c(cc2C1)C(N)=C(C#N)S3(=O)=O` (stereo not shown) [Example 127, 3-Amino-6-tert-butyl-1,1-dioxo-5,6,7,8-tetrahydro-1H-1λ^6-thieno[2,3-b]quinoline-2-carbonitrile] is 1000 to 10000 nM.
Still for that read-out and setting: the figure for `CC(C)(C)[C@@H]1CCc2nc3sc(C(=O)N[C@H](CN)c4cccc(NC(=O)c5ccon5)c4)cc3cc2C1` [Example 232] is < 100 nM; for `CC(C)(C)C1CCc2nc3sc(C(=O)N[C@H](CN)c4ccc([N+](=O)[O-])cc4)cc3cc2C1` (stereo partly shown) [Example 215] it is < 100 nM.
On the same count and under the same terms, the figure for `CC(C)(C)C1CCc2nc3sc(C(=O)NCCN4CCCC4)cc3cc2C1` (stereo not shown) [Example 199, 6-(1,1-Dimethylethyl)-5,6,7,8-tetrahydro-N-[2-(1-Pyrrolidinyl)ethyl]thieno[2,3-b]quinoline-2-Carboxamide] is 1000 to 10000 nM; for `CC(=O)NCc1cc2cc3c(nc2s1)CCC(C(C)(C)C)C3` (stereo not shown) [Example 154] it is 1000 to 10000 nM; for `CC(C)(C)C1CCc2nc3sc(CNCc4cc5cc6c(nc5s4)CCC(C(C)(C)C)C6)cc3cc2C1` (stereo not shown) [Example 150] it is 1000 to 10000 nM.
With `CC(C)(C)C1CCc2nc3sc(C(=O)NCCN)cc3cc2C1` (stereo not shown) [Example 99], the 50% inhibitory concentration (IC50) is < 100 nM.
On the same count and under the same terms, under `CC(C)(C)[C@@H]1CCc2nc3sc(C(=O)N[C@H](CN)c4cccc(NC(=O)c5cc(-c6ccccc6)on5)c4)cc3cc2C1` [Example 234] stands < 100 nM.
On to `N#Cc1sc2nc3c(cc2c1N)CCC(C(F)(F)F)C3` (stereo not shown) [Example 50], for which the IC50 is > 10000 nM.
On the same count and under the same terms, the figure for `CC(C)(C)C1CCCc2nc3sc(C(N)=O)cc3cc2C1` (stereo not shown) [Example 65] is < 100 nM; for `Cc1[nH]ncc1C(=O)Nc1cccc([C@@H](CN)NC(=O)c2cc3cc4c(nc3s2)CC[C@@H](C(C)(C)C)C4)c1` [Example 243] it is < 100 nM; for `CCC(C)(C)C1CCc2c(cc3cc(C#N)sc3[n+]2[O-])C1` (stereo not shown) [Example 71] it is 1000 to 10000 nM.
Regarding `COC(=O)[C@@H]1C[C@@H](O)CN1C(=O)c1cc2cc3c(nc2s1)CCC(C(C)(C)C)C3` (stereo partly shown) [Example 84], the half-inhibitory concentration (IC50) lay within 1000 to 10000 nM.
Still for that read-out and setting: the figure for `CCC1Cc2nc3sc(C#N)c(N)c3cc2CC1C(C)(C)C` (stereo not shown) [Example 205, 3-Amino-6-tert-butyl-7-ethyl-5,6,7,8-tetrahydrothieno[2,3-b]quinoline-2-carbonitrile] is 1000 to 10000 nM.
On the same count and under the same terms, the figure for `CC(C)(C)C1CCc2nc3sc(S)nc3cc2C1` (stereo not shown) [Example 128, 7-tert-Butyl-5,6,7,8-tetrahydrothiazolo[5,4-b]quinoline-2-thiol] is 100 to 1000 nM.
Same read-out and setting: the figure for `CC(C)(C)C1CCc2nc3sc(C#N)cc3cc2C1` (single isomer, unassigned) [Example 62] is 100 to 1000 nM; for `CC[C@@H](CO)NC(=O)c1cc2cc3c(nc2s1)CCC(C(C)(C)C)C3` (stereo partly shown) [Example 158] it is > 10000 nM; for `CC(C)(C)C1CCc2nc3sc(C(N)=O)cc3cc2C1` (single isomer, unassigned; (+)) [Example 68, (+)-6-(1,1-dimethylethyl)-5,6,7,8-tetrahydrothieno[2,3-b]quinoline-2-carboxamide] it is < 100 nM.
In the case of `CC(C)(C)C1CCc2nc3sc(C(=O)Nc4ccccc4)cc3cc2C1` (stereo not shown) [Example 77], the IC50 was > 10000 nM.
On the same count and under the same terms, under `Cc1cc(C(=O)Nc2cccc([C@@H](CNCCO)NC(=O)c3cc4cc5c(nc4s3)CC[C@@H](C(C)(C)C)C5)c2)no1` [Example 266, 6(R)-tert-butyl-5,6,7,8-tetrahydro-thieno[2,3-b]quinoline-2-carboxylic acid (2-(2-hydroxy-ethylamino)-1(S)-{3-[(5-methyl-isoxazole-3-carbonyl)-amino]-phenyl}-ethyl)-amide] stands < 100 nM; under `CC1Cc2nc3sc(C#N)cc3cc2CC1C(C)(C)C` (stereo not shown) [Example 203, 6-tert-Butyl-7-methyl-5,6,7,8-tetrahydro-thieno[2,3,-b]quinoline-2-carbonitrile], 100 to 1000 nM; under `Cn1ccc(C(=O)Nc2cccc([C@@H](CNCCO)NC(=O)c3cc4cc5c(nc4s3)CC[C@@H](C(C)(C)C)C5)c2)n1` [Example 268], < 100 nM.
The same measure, in the same setting: under `CC(C)(C)C1CCc2nc3sc(C(N)=S)cc3cc2C1` (stereo not shown) [Example 70, 6-tert-butyl-5,6,7,8-tetrahydrothieno[2,3-b]quinoline-2-carbothioic acid amide] stands 100 to 1000 nM; under `CN(C)C(=O)c1cc2cc3c(nc2s1)CCC(C(C)(C)C)C3` (stereo not shown) [Example 80], > 10000 nM.
In the case of `CC(C)(C)[C@@H]1CCc2nc3sc(C(=O)N[C@H](CN)c4ccc(NC(=O)c5cnccn5)cc4)cc3cc2C1` [Example 269, 6(R)-tert-Butyl-5,6,7,8-tetrahydro-thieno[2,3-b]quinoline-2-carboxylic acid (2-amino-1(S)-{4-[(pyrazine-2-carbonyl)-amino]-phenyl}-ethyl)-amide], the IC50 was < 100 nM.
On the same count and under the same terms, the figure for `CC(C)(C)C1CCc2nc3sc(C(=O)NCCN)c(N)c3cc2C1` (stereo not shown) [Example 193, 3-Amino-N-(2-Aminoethyl)-6-(1,1-Dimethylethyl)-5,6,7,8-Tetrahydrothieno[2,3-b]quinoline-2-Carboxamide] is 1000 to 10000 nM.
Same read-out and setting: under `Cc1cc(C(=O)Nc2cccc([C@@H](CN)NC(=O)c3cc4cc5c(nc4s3)CC[C@@H](C(C)(C)C)C5)c2)no1` [Example 229] stands < 100 nM; under `CC(=O)Nc1cccc(C(CN)NC(=O)c2cc3cc4c(nc3s2)CCC(C(C)(C)C)C4)c1` (stereo not shown) [Example 222, 6-tert-butyl-5,6,7,8-tetrahydrothieno[2,3-b]quinoline-2-carboxylic acid [1-(3-acetylaminophenyl)-2-aminoethyl]amide], < 100 nM; under `CCC(CN)NC(=O)c1cc2cc3c(nc2s1)CCC(C(C)(C)C)C3` (stereo not shown) [Example 177], < 100 nM.
Regarding `N#Cc1sc2nc3c(cc2c1N)CC(Cc1ccccc1)CC3` (stereo not shown) [Example 31], the half-maximal inhibitory concentration (IC50) was > 10000 nM.
The same measure, in the same setting: the figure for `CC(C)(C)C1CCc2nc3sc(-c4nnc[nH]4)cc3cc2C1` (stereo not shown) [Example 182, 6-tert-Butyl-2-(4H-[1,2,4]triazol-3-yl)-5,6,7,8-tetrahydrothieno[2,3-b]quinoline] is 100 to 1000 nM; for `CC(C)(C)[C@@H]1CCc2nc3sc(C(=O)N[C@H](CN)c4cccc(NCc5ccccc5)c4)cc3cc2C1` [Example 283] it is < 100 nM.
Still for that read-out and setting: under `CC(C)CC1CCc2nc3sc(C#N)c(N)c3cc2C1` (stereo not shown) [Example 27] stands 1000 to 10000 nM; under `CNc1nsnc1C(=O)Nc1cccc([C@@H](CN)NC(=O)c2cc3cc4c(nc3s2)CC[C@@H](C(C)(C)C)C4)c1` [Example 256], < 100 nM; under `CC(C)(C)C1CCc2nc3sc(C(=O)N[C@H](CN)c4cccc(-c5ccncc5)c4)cc3cc2C1` (stereo partly drawn) [Example 212, 6-tert-butyl-5,6,7,8-tetrahydro-thieno[2,3-b]quinoline-2-carboxylic acid [(1S)-2-amino-1-(3-pyridin-4-yl-phenyl)-ethyl]-amide], 100 to 1000 nM.
For the compound `C[C@H]1CN(C(=O)Nc2cccc([C@@H](CN)NC(=O)c3cc4cc5c(nc4s3)CC[C@@H](C(C)(C)C)C5)c2)CCN1` [Example 280], the IC50 is 100 to 1000 nM.
On to `CC[C@@H](C#N)NC(=O)c1cc2cc3c(nc2s1)CCC(C(C)(C)C)C3` (stereo partly drawn) [Example 166, 6-tert-Butyl-5,6,7,8-tetrahydrothieno[2,3-b]quinoline-2-carboxylic acid [(1S)-1-cyanopropyl)amide], for which the IC50 was > 10000 nM.
As to `CCC(CC)C1CCc2nc3sc(C#N)c(N)c3cc2C1` (stereo not shown) [Example 26], the half-maximal inhibitory concentration (IC50) lay in the range of 100 to 1000 nM.
On to `COC(=O)C(CO)NC(=O)c1cc2cc3c(nc2s1)CCC(C(C)(C)C)C3` (stereo not shown) [Example 94], for which the IC50 fell in the range of 100 to 1000 nM.
Still for that read-out and setting: the figure for `CN(C)Cc1cc2cc3c(nc2s1)CCC(C(C)(C)C)C3` (stereo not shown) [Example 152] is 1000 to 10000 nM; for `N#Cc1sc2nc3c(cc2c1N)CC(C1CCCC1)CC3` (stereo not shown) [Example 22] it is > 10000 nM; for `CC(C)(C)[C@@H]1CCc2nc3sc(C(=O)N[C@H](CN)c4ccc(NC(=O)c5ccco5)cc4)cc3cc2C1` [Example 273, 6(R)-tert-Butyl-5,6,7,8-tetrahydro-thieno[2,3-b]quinoline-2-carboxylic acid (2-amino-1(S)-{4-[(furan-2-carbonyl)-amino]-phenyl}-ethyl)-amide] it is < 100 nM.

The assay is the same for the next values; noted with them: exact IC50 values, end-point assay (Table 2); read-out: IC50.
As for `CC(C)(C)C1CCc2nc3sc(C(=O)NCCN)cc3cc2C1` (stereo not shown) [Example 99], the IC50 stood at 22 nM.
On the same count and under the same terms, under `CC(C)(C)C1CCCc2nc3sc(C(N)=O)cc3cc2C1` (stereo not shown) [Example 65] stands 62 nM; under `CC(C)(C)C1CCc2nc3sc(C(N)=O)cc3cc2C1` (single isomer, unassigned; (+)) [Example 68, (+)-6-(1,1-dimethylethyl)-5,6,7,8-tetrahydrothieno[2,3-b]quinoline-2-carboxamide], 20 nM; under `CCC(CN)NC(=O)c1cc2cc3c(nc2s1)CCC(C(C)(C)C)C3` (stereo not shown) [Example 177], 65 nM.
Regarding `CC(C)(C)[C@@H]1CCc2nc3sc(C(=O)N[C@H](CN)c4ccc(NC(=O)c5ccco5)cc4)cc3cc2C1` [Example 273, 6(R)-tert-Butyl-5,6,7,8-tetrahydro-thieno[2,3-b]quinoline-2-carboxylic acid (2-amino-1(S)-{4-[(furan-2-carbonyl)-amino]-phenyl}-ethyl)-amide], the 50% inhibitory concentration (IC50) is 17 nM.
